Laboratory results as given in patent US12590091B2, “1H-pyrrolo[3,2-C]pyridine and 1H-pyrrolo[2,3-C]pyridine derivatives as TLR9 inhibitors for the treatment of fibrosis” (BRISTOL-MYERS SQUIBB COMPANY, priority 2020, dated 2026).

Target: T1, human TLR9 (Homo sapiens, UniProt Q9NR96)
T1 construct: host or cells: HEK-Blue cells
T1 sequence (Q9NR96 26-1032): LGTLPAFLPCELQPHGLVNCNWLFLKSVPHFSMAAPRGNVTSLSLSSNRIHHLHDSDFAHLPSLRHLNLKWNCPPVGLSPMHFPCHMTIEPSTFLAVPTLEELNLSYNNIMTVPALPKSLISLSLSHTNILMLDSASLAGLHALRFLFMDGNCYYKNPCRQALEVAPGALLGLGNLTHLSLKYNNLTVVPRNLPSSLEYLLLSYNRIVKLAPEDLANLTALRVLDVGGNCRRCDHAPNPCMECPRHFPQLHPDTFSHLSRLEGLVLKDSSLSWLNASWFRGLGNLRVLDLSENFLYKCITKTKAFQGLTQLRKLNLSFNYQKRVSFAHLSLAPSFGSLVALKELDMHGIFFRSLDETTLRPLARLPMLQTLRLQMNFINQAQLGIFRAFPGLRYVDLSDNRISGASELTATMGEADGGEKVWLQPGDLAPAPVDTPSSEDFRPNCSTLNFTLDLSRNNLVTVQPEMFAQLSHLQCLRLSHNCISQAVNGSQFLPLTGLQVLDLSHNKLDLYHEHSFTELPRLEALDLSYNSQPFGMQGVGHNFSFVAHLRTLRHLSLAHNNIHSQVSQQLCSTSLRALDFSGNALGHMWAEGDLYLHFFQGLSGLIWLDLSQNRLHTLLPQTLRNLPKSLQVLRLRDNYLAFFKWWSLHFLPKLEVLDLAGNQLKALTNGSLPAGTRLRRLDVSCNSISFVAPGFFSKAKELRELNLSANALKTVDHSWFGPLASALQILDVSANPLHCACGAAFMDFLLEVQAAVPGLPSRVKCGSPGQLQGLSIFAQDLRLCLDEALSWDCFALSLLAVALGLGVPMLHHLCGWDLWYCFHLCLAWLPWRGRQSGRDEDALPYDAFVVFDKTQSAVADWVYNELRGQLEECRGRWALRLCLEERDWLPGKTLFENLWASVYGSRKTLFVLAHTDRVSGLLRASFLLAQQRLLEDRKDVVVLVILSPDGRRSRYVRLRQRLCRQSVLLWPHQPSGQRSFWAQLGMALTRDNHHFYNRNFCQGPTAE
Experiment: TLR9 inhibition reporter assay (HEK-Blue cells, SEAP reporter)
Format: cell-based
Settings: HEK-Blue cells overexpressing human TLR9, stimulated with ODN2006 5 nM, 22 hour incubation
In short: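 Compound dose-response (0.05 nM–50 μM final) on agonist-stimulated human TLR9 HEK-Blue cells, 25,000/well, incubated 22 h at 37 °C, 5% CO2. Readout was secreted alkaline phosphatase under an IFN-β minimal promoter with NF-κB/AP-1 sites; inhibition expressed relative to DMSO and reference-inhibitor controls.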

IC50 [nM] | Structure (SMILES)
161 | COc1ccc(-c2[nH]c3cnc(-c4ccc(N5CCN(C(C)C)CC5)cc4)cc3c2C)cc1OC [Example 1, 2-(3,4-Dimethoxyphenyl)-5-(4-(4-isopropylpiperazin-1-yl)phenyl)-3-methyl-1H-pyrrolo[2,3-c]pyridine]
157 | COc1ccc(-c2c(C)[nH]c3cnc(-c4ccc(N5CCN(C(C)C)CC5)cc4)cc23)cc1OC [Example 2, 3-(3,4-dimethoxyphenyl)-5-(4-(4-isopropylpiperazin-1-yl)phenyl)-2-methyl-1H-pyrrolo[2,3-c]pyridine]
82 | COc1ccc(-c2c(C)n(C)c3cnc(-c4ccc(N5CCN(CC(C)(C)O)CC5)cc4)cc23)cc1OC [Example 3, 1-(4-(4-(3-(3,4-Dimethoxyphenyl)-1,2-dimethyl-1H-pyrrolo[2,3-c]pyridin-5-yl)phenyl)piperazin-1-yl)-2-methylpropan-2-ol]
243 | COc1ccc(-c2c(C)[nH]c3cnc(C4CCN(C5CCN(C(=O)OCc6ccccc6)CC5)CC4)cc23)cc1OC [Example 4, Benzyl 4-(3-(3,4-dimethoxyphenyl)-2-methyl-1H-pyrrolo[2,3-c]pyridin-5-yl)-[1,4′-bipiperidine]-1′-carboxylate]
133 | COc1ccc(-c2c(C)[nH]c3cnc(C4CCN(C(=O)C5CCN(C6CC6)CC5)CC4)cc23)cc1OC [Example 5, (1-Cyclopropylpiperidin-4-yl)(4-(3-(3,4-dimethoxyphenyl)-2-methyl-1H-pyrrolo[2,3-c]pyridin-5-yl)piperidin-1-yl)methanone]
296 | COc1ccc(-c2c(C)[nH]c3cnc(C4CCN(c5cc(C)nc(C)c5)CC4)cc23)cc1OC [Example 6, 3-(3,4-Dimethoxyphenyl)-5-(1-(2,6-dimethylpyridin-4-yl)piperidin-4-yl)-2-methyl-1H-pyrrolo[2,3-c]pyridine]
21 | COc1ccc(-c2cc3cnc(-c4ccc(N5CCN(CC6CC6)CC5)cc4)cc3n2C)cc1OC [Example 9, 6-(4-(4-(Cyclopropylmethyl)piperazin-1-yl)phenyl)-2-(3,4-dimethoxyphenyl)-1-methyl-1H-pyrrolo[3,2-c]pyridine]
66 | COc1ccc(-c2cc3cnc(-c4ccc(N5CCN(C6CCC6)CC5)cc4)cc3n2C)cc1OC [Example 10, 6-(4-(4-Cyclobutylpiperazin-1-yl)phenyl)-2-(3,4-dimethoxyphenyl)-1-methyl-1H-pyrrolo[3,2-c]pyridine]
191 | COc1ccc(-c2c(C)c3cc(C4CCN(C5CCN(CC(C)C)CC5)CC4)ncc3n2C)cc1OC [Example 13, 2-(3,4-dimethoxyphenyl)-5-(1′-isobutyl-[1,4′-bipiperidin]-4-yl)-1,3-dimethyl-1H-pyrrolo[2,3-c]pyridine]
313 | COc1ccc(-c2c(C)[nH]c3cnc(C4CCN(C5CCN(C(=O)c6ccccc6)CC5)CC4)cc23)cc1OC [Example 14, (4-(3-(3,4-dimethoxyphenyl)-2-methyl-1H-pyrrolo[2,3-c]pyridin-5-yl)-[1,4′-bipiperidin]-1′-yl) (phenyl)methanone]
39 | COc1ccc(-c2c(C)[nH]c3cnc(C4CCN(C5CCN(C(=O)C(C)C)CC5)CC4)cc23)cc1OC [Example 15, 1-(4-(3-(3,4-dimethoxyphenyl)-2-methyl-1H-pyrrolo[2,3-c]pyridin-5-yl)-[1,4′-bipiperidin]-1′-yl)-2-methylpropan-1-one]
84 | COc1ccc(-c2c(C)[nH]c3cnc(C4CCN(C(=O)CN5CCCCC5)CC4)cc23)cc1OC [Example 16, 1-(4-(3-(3,4-dimethoxyphenyl)-2-methyl-1H-pyrrolo[2,3-c]pyridin-5-yl)piperidin-1-yl)-2-(piperidin-1-yl)ethan-1-one]
19 | COc1ccc(-c2c(C)n(C)c3cnc(C4CCN(C5CCN(CC(C)C)CC5)CC4)cc23)cc1OC [Example 17, 3-(3,4-dimethoxyphenyl)-5-(1′-isobutyl-[1,4′-bipiperidin]-4-yl)-1,2-dimethyl-1H-pyrrolo[2,3-c]pyridine]
194 | COc1ccc(-c2c(C)n(C)c3cnc(C4CCN(C5CCN(C(=O)C(C)C)CC5)CC4)cc23)cc1OC [Example 18, 1-(4-(3-(3,4-dimethoxyphenyl)-1,2-dimethyl-1H-pyrrolo[2,3-c]pyridin-5-yl)-[1,4′-bipiperidin]-1′-yl)-2-methylpropan-1-one]
130 | COc1ccc(-c2c(C)n(C)c3cnc(C4CCN(C5CCN(C(=O)c6ccccc6)CC5)CC4)cc23)cc1OC [Example 19, (4-(3-(3,4-dimethoxyphenyl)-1,2-dimethyl-1H-pyrrolo[2,3-c]pyridin-5-yl)-[1,4′-bipiperidin]-1′-yl)(phenyl)methanone]
153 | CCOC(=O)N1CCC(N2CCC(c3cc4c(-c5ccc(OC)c(OC)c5)c(C)n(C)c4cn3)CC2)CC1 [Example 20, ethyl 4-(3-(3,4-dimethoxyphenyl)-1,2-dimethyl-1H-pyrrolo[2,3-c]pyridin-5-yl)-[1,4′-bipiperidine]-1′-carboxylate]
603 | COc1ccc(-c2c(C)[nH]c3cnc(C4CCN(C(=O)CN5CCCC5)CC4)cc23)cc1OC [Example 21, 1-(4-(3-(3,4-dimethoxyphenyl)-2-methyl-1H-pyrrolo[2,3-c]pyridin-5-yl)piperidin-1-yl)-2-(pyrrolidin-1-yl)ethan-1-one]
1570 | COc1ccc(-c2c(C)[nH]c3cnc(C4CCN(C(=O)CN(C)C)CC4)cc23)cc1OC [Example 22, 1-(4-(3-(3,4-dimethoxyphenyl)-2-methyl-1H-pyrrolo[2,3-c]pyridin-5-yl)piperidin-1-yl)-2-(dimethylamino)ethan-1-one]
1110 | COc1ccc(-c2c(C)[nH]c3cnc(C4CCN(C(=O)CCN5CCCC5)CC4)cc23)cc1OC [Example 23, 1-(4-(3-(3,4-dimethoxyphenyl)-2-methyl-1H-pyrrolo[2,3-c]pyridin-5-yl)piperidin-1-yl)-3-(pyrrolidin-1-yl)propan-1-one]
59 | COc1ccc(-c2cc3cnc(-c4ccc(N5CCN(C(C)C)CC5)cc4)cc3n2C)cc1OC [Example 24, 2-(3,4-dimethoxyphenyl)-6-(4-(4-isopropylpiperazin-1-yl)phenyl)-1-methyl-1H-pyrrolo[3,2-c]pyridine]
197 | COc1ccc(-c2cc3cnc(C4CCN(C(=O)CN5CCCCC5)CC4)cc3n2C)cc1OC [Example 25, 1-(4-(2-(3,4-dimethoxyphenyl)-1-methyl-1H-pyrrolo[3,2-c]pyridin-6-yl)piperidin-1-yl)-2-(piperidin-1-yl)ethan-1-one]
9 | COc1ccc(-c2cc3cnc(C4CCN(C5CCN(C(=O)c6ccccc6)CC5)CC4)cc3n2C)cc1OC [Example 26, (4-(2-(3,4-dimethoxyphenyl)-1-methyl-1H-pyrrolo[3,2-c]pyridin-6-yl)-[1,4′-bipiperidin]-1′-yl)(phenyl)methanone]
45 | COc1ccc(-c2cc3cnc(-c4ccc(N5CCN(C)CC5)cc4)cc3n2C)cc1OC [Example 27, 2-(3,4-dimethoxyphenyl)-1-methyl-6-(4-(4-methylpiperazin-1-yl)phenyl)-1H-pyrrolo[3,2-c]pyridine]
269 | COc1ccc(-c2cc3cnc(C4CCN(Cc5ccc(C(F)(F)F)nc5)CC4)cc3n2C)cc1OC [Example 28, 2-(3,4-dimethoxyphenyl)-1-methyl-6-(1-((6-(trifluoromethyl)pyridin-3-yl)methyl)piperidin-4-yl)-1H-pyrrolo[3,2-c]pyridine]
399 | COc1ccc(-c2cc3cnc(-c4ccc(N5CCN(C(=O)c6ccccc6)CC5)cc4)cc3n2C)cc1OC [Example 29, (4-(4-(2-(3,4-dimethoxyphenyl)-1-methyl-1H-pyrrolo[3,2-c]pyridin-6-yl)phenyl)piperazin-1-yl)(phenyl)methanone]
72 | COc1ccc(-c2cc3cnc(-c4ccc(N5CCN(C(C)C)CC5)nc4)cc3n2C)cc1OC [Example 31, 2-(3,4-dimethoxyphenyl)-6-(6-(4-isopropylpiperazin-1-yl)pyridin-3-yl)-1-methyl-1H-pyrrolo[3,2-c]pyridine]
170 | COc1ccc(-c2c(C)n(C)c3cnc(-c4ccc(N5CCN(C(C)C)CC5)cc4)cc23)cc1OC [Example 32, 3-(3,4-dimethoxyphenyl)-5-(4-(4-isopropylpiperazin-1-yl)phenyl)-1,2-dimethyl-1H-pyrrolo[2,3-c]pyridine]
